According to paper PMC6858451, “Rhesus Theta Defensin 1 Promotes Long Term Survival in Systemic Candidiasis by Host Directed Mechanisms” (Scientific Reports, 2019):
Bridge positions count the residues as written; N and C are the ends. Peptide text beside a SMILES is read from it.

Tests used:
[1] = RTD-1 plasma pharmacokinetics
Protocol: RTD-1 plasma levels were also analyzed 60 or 240 min after additional daily 5 mg/kg i.p. doses administered up to 6 days.
Single dose PK of RTD-1 was evaluated by quantifying plasma peptide concentrations at intervals following 5 mg/kg bolus injections administered i.v. and i.p. to CD-1 mice. At indicated intervals, plasma was prepared from EDTA-anticoagulated blood collected aseptically by terminal cardiac puncture. Plasma was diluted 1:10 or 1:20 into 5% formic/5% acetonitrile. RTD-1 plasma concentrations were determined by reverse-phase liquid chromatography (XBridge phenyl 3.5 µm column, Waters) on an Acquity H-Class UPLC (Waters) with tandem electrospray mass spectroscopy on a Xevo TQ-S running MassLynx V4.1 (Waters). Quantitative mass spectroscopy was performed by multiple-reaction monitoring transition 417.38 > 517.14, with area under the curve determined by TargetLynx (Waters). Pharmacokinetic modeling of intravenous RTD-1 concentration-time data was performed with ADAPT (version 5) software using the naïve pooled data approach. One- and two-compartment models were evaluated. Model selection was based on the Akaike information criterion (AIC) and the Bayesian information criterion (BIC) scores, the likelihood ratio test (LRT), and goodness-of-fit plots. […] Area under the curve (AUC24) was calculated by taking the average of RTD-1 concentrations at each time point and applying the linear trapezoidal method. Bioavailability (F) for i.p. injection was determined using the ratio of AUCs from i.p. and i.v.

[2] = tested on: host and fungal proteases; details: cited from earlier work
[3] = tested on: C. albicans 53264 biofilms; experiment: Biofilm XTT metabolic assay; assay type: cell-based; details: pre-adhesion, 2 h adherent and 24 h mature biofilms
Protocol: The antifungal activities of RTD-1, caspofungin and fluconazole were evaluated against biofilms of C. albicans SC5314 and 53264 essentially as described by Pierce et al.[67]. Briefly, biofilms established for 0 h (preadhesion), 2 h (adherent), or 24 h (mature) were developed by adding 1 × 10^5 yeast cells in 50 or 100 µl of RPMI-1640 to wells of flat-bottom 96-well microtiter plates (Costar, Corning, NY). Fifty or 100 µl aliquots of serial 2-fold dilutions of peptide or antifungal drugs were added to wells in triplicate and incubated for 24 h or 48 h prior to analysis of biofilm metabolic activities. Concentrations of reagents used were as follows: RTD-1 - 0.09 – 100 µg/ml (0.05–48 µM), Fluco – 1–250 µg/ml (3.3–816.3 µM); Caspo- 0.003–8 µg/ml ([…]–7.3 µM). Analysis of the effect of each agent on Candida biofilms was performed using an XTT colorimetric assay. One hundred µl of 1 µM XTT/menadione added to each biofilm well, plates were incubated in the dark for 3 h at 37 °C, and 80 µl of supernatant was transferred to a new 96-well flat-bottom microtiter plate (Greiner Bio-one, Monroe, NC). Absorbance was measured at 490 nm on a SpectraMax® i3x (Molecular Devices). Readings were plotted as average of triplicates after subtracting the corresponding values for negative controls (XTT/menadione only).

[4] = cited from earlier work
[5] = cited from earlier work; remark: listed apart in the source
C. albicans = details: planktonic cells; cited from earlier work
Excerpt: RTD-1 is the prototype θ-defensin, the only known backbone cyclized polypeptides in the Animal Kingdom. All natural θ-defensin isoforms are 18-amino acid macrocycles stabilized by a six cysteine, tridisulfide core. […] As reported here and elsewhere, RTD-1 kills Candida ...

[6] = tested on: blood neutrophils, monocytes and inflammatory cytokines; experiment: Hematology and plasma cytokine analyses in naive and candidemic mice; assay type: in vivo
Excerpt: EDTA-anticoagulated blood was collected aseptically by terminal cardiac puncture and analyzed for complete blood cell count using a HemaVet 950 FS hematology analyzer (Drew Scientific). Plasma cytokine levels plasma were quantified using a mouse-specific MILLIPLEX MAP kit (Millipore) as described.

[7] = tested on: C. albicans SC5314, 43001 and 53264; experiment: MIC/MFC, summary statements over the three strains; assay type: cell-based
Protocol: C. albicans strains were tested against RTD-1, fluconazole, and caspofungin in microdilution broth in accordance with Clinical and Laboratory Standards Institute (CLSI) document M27-A2 with the exception that 25 mM MOPS was used in place of 165 mM MOPS, as described previously. Overnight cultures were harvested by centrifugation, washed twice with Ca^2+ and Mg^2+-free PBS, pH 7.2, and suspended in test medium (RPMI 1640 medium, 25 mM MOPS, 2 mM L-glutamine) at 10^4 CFU/ml[62]. Incubations were conducted in flat bottom, 96-well microtiter plates (Greiner bio-one, Monroe, NC) containing 0.2 ml test medium per well. Duplicate 0.1 ml aliquots of serial two-fold dilutions of peptides and antifungal drugs were dispensed into wells, each of which was inoculated with 0.1 ml of fungal cell suspension containing 1 × 10^3 CFU. Plates were incubated at 30 °C for 48 hours after which A600 was determined using a SpectraMax M5e plate reader.
Minimal fungicidal concentration (MFC) was determined by plating, on YPD plates, 10 µl from wells in MIC assay without cell growth and the first well with measurable turbidity as described[63]–[66] and corresponding aliquots from the no-agent controls. Under MIC incubation conditions, no filamentation occurred allowing for accurate CFU counts after plating on YPD plates which were incubated for 24 h at 30 °C. […]

[8] = 5 mg/kg i.v., two-compartment model, mean
[9] = candidemic mice, single 5 mg/kg i.p., 7 days p.i.
[10] = long term survivors, day 30 p.i.

CC[C@H](C)[C@@H]1NC(=O)[C@@H]2CSSC[C@H](NC(=O)[C@H](CCCNC(=N)N)NC(=O)[C@@H]3CSSC[C@H](NC1=O)C(=O)N[C@@H]([C@@H](C)O)C(=O)N[C@@H](CCCNC(=N)N)C(=O)NCC(=O)N[C@@H](Cc1ccccc1)C(=O)N3)C(=O)N[C@@H](CC(C)C)C(=O)N[C@H]1CSSC[C@H](NC(=O)[C@H](C(C)C)NC(=O)CNC(=O)[C@H](CCCNC(=N)N)NC(=O)[C@H](CCCNC(=N)N)NC1=O)C(=O)N[C@@H](CCCNC(=N)N)C(=O)N2 [RTD-1, Rhesus theta (θ) defensin-1] (cyclo(GFCRCLCRRGVCRCICTR); disulfide 3-16, 5-14, 7-12 (inferred); ring closure inferred)
CLd, distributional clearance [1, 8]: 3.248 mL/h | K10, elimination rate constant from the central compartment [1, 8]: 0.9719 h⁻¹ | T1/2-λ1, distribution half-life [1, 8]: 0.5676 h | Vc, central volume of distribution [1, 8]: 14.58 mL | Vp, peripheral volume [1, 8]: 24.88 mL | λ1, distribution rate constant [1, 8]: 1.221 h⁻¹ | λ2, terminal rate constant [1, 8]: 0.1039 h⁻¹ | accumulation in plasma ([1]; daily 5 mg/kg i.p. doses up to 6 days, levels 60 or 240 min after dose): did not accumulate in plasma | Cmax ([1]; mouse, in vivo, ip, 5 mg/kg): 670 ng/mL | Tmax ([1]; mouse, in vivo, ip, 5 mg/kg): 4 h | bioavailability ([1]; mouse, in vivo, ip, 5 mg/kg): 63.4% | clearance ([1]; mouse, in vivo, iv, 5 mg/kg): 0.236 mL/min | half-life ([1]; mouse, in vivo, iv, 5 mg/kg): 6.67 h | stability to fungal proteases [2]: highly stable | stability to host proteases [2]: highly stable | biofilm inhibition (XTT) [3]: inhibited biofilm formation | immunogenicity [4]: non-immunogenic | stability in serum and plasma [5]: highly stable | time to permeabilization of C. albicans to propidium iodide (C. albicans): < 10 min | blood neutrophil counts ([6]; candidemic mice (SC5314), single 5 mg/kg i.p. at T = 0, 4 h p.i.): significantly (P = 0.008) increased blood neutrophil counts | blood neutrophil counts ([6]; candidemic mice, single 5 mg/kg i.p. at T = 0, day 7, vs saline): significantly (P = 0.0002) lower | IL-10 or IL-6 levels [6, 9]: no effect | blood proinflammatory cytokines TNF, IL-1β and IL-17 [6, 9]: significant reduction | circulating granulocytes [6, 10]: homeostatic normalization of circulating granulocytes | levels of TNF, IL-10 and IL-6 [6, 10]: normalized to those of uninfected controls | blood cytokine levels ([6]; naive mice): did not alter the levels of these cytokines | increase of blood neutrophils ([6]; naive mice, single 5 mg/kg i.p., 4 h, P = 0.32): 2.3 fold | MFCs as multiple of the MICs ([7]; RPMI): 1–2 × the MICs | antifungal activity against blastospores in 50% mouse serum ([7]; peptide concentrations up to 100 µg/ml): inactive
